{"source": "patent US20250064877A1", "about": "“COMPOSITION FOR INCREASING MUSCLE STRENGTH CONTAINING COMPLEX EXTRACT OF ANGELICA KEISKEI AND LEAVES OF MORUS ALBA L” (HAMSOA PHARMACEUTICAL CO., LTD., priority 2022, published 2025)", "system": "MuRF1", "test": "Expression of MuRF1 in dexamethasone-induced muscle atrophy rats", "format": "in vivo, SD rats", "conditions": "versus increase induced by dexamethasone; MIX 100 mg/kg, PC 320 mg/kg oral; FIG. 7", "from_the_text": "In the process of treating muscle atrophy, the effects of the composite (extracts) of leaves of mulberry and Angelica keiskei on the expression of MyoD (a factor involved in muscle production) and on the expression of MuRF1 (a factor related to muscle atrophy) were confirmed."}
{"smiles": "CC(C)(O)CC(=O)O", "note": "[PC, 3-hydroxy-3-methylbutyric acid]", "values": [{"measurement": "expression of MuRF1", "result": "tended to decrease"}]}
